# In patent US20180194762A1 (Pharmacyclics LLC, priority 2017, published 2018):
# Legend:
# Type in all cases: biochemical
# panel of kinases = target: T1, panel of kinases (Homo sapiens, UniProt P51813); assay: Inhibition of a panel of kinases (in vitro HotSpot kinase assay, 33P-ATP, 1 μM ATP), other kinases; conditions: BMX wild-type, read-out: BMX-WT IC50
# T1 sequence (P51813 1-675): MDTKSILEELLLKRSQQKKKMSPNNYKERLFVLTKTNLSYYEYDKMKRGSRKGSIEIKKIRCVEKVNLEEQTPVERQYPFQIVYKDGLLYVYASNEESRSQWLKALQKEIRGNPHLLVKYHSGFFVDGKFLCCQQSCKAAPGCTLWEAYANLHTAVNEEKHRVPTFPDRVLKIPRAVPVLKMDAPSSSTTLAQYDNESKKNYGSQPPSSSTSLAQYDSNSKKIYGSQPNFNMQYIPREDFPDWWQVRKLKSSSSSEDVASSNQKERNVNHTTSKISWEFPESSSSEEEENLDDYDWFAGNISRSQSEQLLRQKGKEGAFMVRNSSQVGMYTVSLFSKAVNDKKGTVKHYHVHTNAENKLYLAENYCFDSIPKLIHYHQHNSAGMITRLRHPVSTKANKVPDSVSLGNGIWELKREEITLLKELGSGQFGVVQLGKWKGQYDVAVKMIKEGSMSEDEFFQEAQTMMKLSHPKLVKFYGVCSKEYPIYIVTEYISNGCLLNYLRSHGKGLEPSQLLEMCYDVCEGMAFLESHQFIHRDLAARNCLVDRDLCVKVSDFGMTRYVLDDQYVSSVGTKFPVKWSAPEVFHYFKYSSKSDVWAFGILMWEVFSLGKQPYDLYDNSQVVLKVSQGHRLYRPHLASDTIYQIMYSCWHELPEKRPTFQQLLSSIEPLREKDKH
# Summary of the method: (§1)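 Degree of kinase inhibition is determined in vitro using isolated enzymes, a matched substrate and radiolabelled ATP (1 μM).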
# Btk = target: T2, Btk (Homo sapiens, UniProt Q06187); assay: Btk in vitro inhibitory activity (one of Method A TR-FRET, Method B electrophoretic mobility shift, Method C radiometric filter binding); conditions: wild-type Btk; read-out: Btk-WT IC50
# T2 construct: purified from insect cells as a full-length construct containing a N-terminal 6X-His tag; His6 (N); made in house; host or cells: insect cells (Method C)
# Summary of the method: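 Method A: TR-FRET with 0.5 nM Btk at [ATP]=Km, EDTA-quenched, 665/615 nm ratio; Ki(app) converted to IC50. Method B: 1 nM full-length His6 human BTK, 1 μM FAM peptide, pH 7.5, mobility-shift product/sum ratio, 12-point 4-parameter fit. Method C: radiometric filter binding, 8 nM His-tagged BTK, 0.2 mg/mL poly-Glu-Tyr.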
# TEC = target: T3, TEC (Homo sapiens, UniProt P42680); assay: Inhibition of a panel of kinases (in vitro HotSpot kinase assay, 33P-ATP, 1 μM ATP); conditions: HotSpot kinase assay, 1 μM ATP
# T3 sequence (P42680 1-631): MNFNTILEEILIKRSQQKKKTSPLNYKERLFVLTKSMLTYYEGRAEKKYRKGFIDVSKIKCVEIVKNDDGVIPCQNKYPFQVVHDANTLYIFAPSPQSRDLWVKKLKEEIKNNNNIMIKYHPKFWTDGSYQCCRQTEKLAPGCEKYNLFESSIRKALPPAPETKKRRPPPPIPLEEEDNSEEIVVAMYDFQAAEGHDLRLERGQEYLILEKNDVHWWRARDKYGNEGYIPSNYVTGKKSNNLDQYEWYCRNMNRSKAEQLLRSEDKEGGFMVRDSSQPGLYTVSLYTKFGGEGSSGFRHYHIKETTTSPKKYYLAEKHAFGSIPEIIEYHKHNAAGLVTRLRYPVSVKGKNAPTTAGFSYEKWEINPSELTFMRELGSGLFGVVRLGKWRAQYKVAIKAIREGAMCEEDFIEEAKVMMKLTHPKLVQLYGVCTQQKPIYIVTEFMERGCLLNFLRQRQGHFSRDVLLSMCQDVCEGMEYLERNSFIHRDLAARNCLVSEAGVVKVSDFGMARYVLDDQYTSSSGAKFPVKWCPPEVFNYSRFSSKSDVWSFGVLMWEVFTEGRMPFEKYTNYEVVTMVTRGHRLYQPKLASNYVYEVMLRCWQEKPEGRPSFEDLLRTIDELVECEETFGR
# Summary of the method: as §1
# T2 sequence (Q06187 whole entry): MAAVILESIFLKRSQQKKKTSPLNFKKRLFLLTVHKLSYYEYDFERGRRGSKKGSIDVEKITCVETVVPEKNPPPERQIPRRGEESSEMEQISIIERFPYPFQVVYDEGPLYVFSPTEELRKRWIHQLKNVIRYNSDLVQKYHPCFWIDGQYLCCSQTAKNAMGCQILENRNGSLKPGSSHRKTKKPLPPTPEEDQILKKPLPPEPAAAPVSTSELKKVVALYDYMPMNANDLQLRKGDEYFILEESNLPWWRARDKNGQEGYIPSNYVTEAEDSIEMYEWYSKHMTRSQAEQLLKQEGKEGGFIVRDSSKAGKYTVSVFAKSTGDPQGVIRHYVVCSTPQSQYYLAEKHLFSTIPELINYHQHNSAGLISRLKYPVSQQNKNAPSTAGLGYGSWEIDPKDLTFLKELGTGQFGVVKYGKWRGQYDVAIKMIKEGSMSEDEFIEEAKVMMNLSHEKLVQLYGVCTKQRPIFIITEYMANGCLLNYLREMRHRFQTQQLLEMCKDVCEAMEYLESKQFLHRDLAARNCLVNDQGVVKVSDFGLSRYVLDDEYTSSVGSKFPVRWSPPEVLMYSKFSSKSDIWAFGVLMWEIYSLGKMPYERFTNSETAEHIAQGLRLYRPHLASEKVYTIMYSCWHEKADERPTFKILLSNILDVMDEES
smiles,measurement,setting,value
"CC(=O)N[C@@H]1CCN(c2n[nH]c3nccc(-c4ccc(CNC(=O)c5ccc(C(C)(C)O)cn5)c(F)c4)c23)C1 [Example 424, N-[(4-{3-[(3R)-3-acetamidopyrrolidin-1-yl]-1H-pyrazolo[3,4-b]pyridin-4-yl}-2-fluorophenyl)methyl]-5-(2-hydroxypropan-2-yl)pyridine-2-carboxamide]",IC50,panel of kinases,6.84 µM
same,IC50,Btk,0.0288 µM
same,IC50,TEC,5.44 µM
